From US5473074A, “Adenosine diphosphoribose polymerase binding nitroso aromatic compounds useful as retroviral inactivating agents, anti-retroviral agents and anti-tumor agents-54” (priority 1992, dated 1995)
Entries after “also recorded” stand apart in the source; their conditions may differ.

How the values were obtained:
[1] = system: cancer cells (855-2 and HL-60 leukemia, D32, D37 and CRL 7712 glioblastoma, 186 medulla tumor, L1210 murine leukemia, MDA-468 human breast tumor); experiment: Functions of cancer cells in absence or presence of compounds (FIGS. 4-9); format: cell-based
Method: (§2) Experiments were performed in which the functions of various cancer cells (855-2 and HL-60 leukemia cells, D32, D37 and CRL 7712 glioblastoma cell lines, 186 medulla tumor cell line, L1210 murine leukemia cell line, MDA-468 human breast tumor cell line) and normal cells (neutrophil leukocytes and bone marrow or peripheral blood stream cells) were assessed in the absence or presence of the compounds.

[2] = system: HIV-1 (LAV strain); experiment: HIV-1 inactivation assay in PHA-stimulated PBL (FIG. 13A, B); format: cell-based
Method: The assay was performed as described in FIG. 13A except that the 30 min. preincubation of virus with NOBA was carried out at 0, 22 or 37° C.
An HIV-1 stock having an infectivity titer of 100,000 TCID50 was incubated for 30 min. at 22° C. with either of the drugs. Control HIV samples, containing no drugs, were incubated in the same manner. […] At the end of this incubation cultures were assayed for productive infection by an immunoassay for HIV-1 antigens and by reverse transcriptase as described in McDougal, et al., J. Immunol Methods 76:171-183 (1985). Virus titers were expressed as percentile values (percent infected cultures) compared to the controls, containing HIV dilutions which were not preincubated with the C-nitroso drugs. In a separate series of experiments, HIV-1 dilutions and C-nitroso drugs (see upper abscissa) were not preincubated but were added simultaneously to lymphocytes in exactly the same concentrations as described previously (i.e., following preincubation) and viral growth monitored 9 days later. […] Chem. Soc. 111:395-396 (1989), South, et al., Biochem Pharm. 40:123-129 (1990), Summers, et al., Biochemistry 29:329-340 (1990), the inhibition of HIV-1 propagation was profound when C-nitroso drugs were preincubated with HIV-1, whereas only negligible effect on HIV-1 growth occurred when both drugs and virus were added simultaneously.
(§1) Experiments were performed in which the incubations with NOBA was carried out at 0°, 22°, and 37° C. […] In agreement with the negligible cytotoxic effect of C-nitroso drugs on non-tumor cells described elsewhere in this application, human lymphocytes tolerated NOBA up to 50 μM without major changes in cell metabolism, which was assayed by quantitative dye reduction as described in Mosaran, J. Imm. Methods 65:55-63 (1983).

[3] = system: normal rhesus bone marrow stem cells; experiment: CFU stem cell toxicity assay, FIG. 5A; conditions: 10 μM
[4] = system: HL-60 cells; experiment: Colony formation (CFU) in semi-solid medium, HL-60; format: cell-based, human; conditions: single cells in semi-solid medium
[5] = system: HIV-1 (MN strain) virions; experiment: Zinc loss from HIV-1 virions treated with NOBA; format: biochemical
Method: Experiments were performed to determine if NOBA is capable of ejecting zinc from intact virions. HIV-1 (MN strain) was produced, purified and concentrated as described in Bess et al., J. Virol. 66:840-847 (1992). The concentrated virus was diluted to 60 times that of culture fluid in TNE buffer (0.01M Tris-HCl, 0.1M NaCl, 1 mM EDTA, pH 7.2) and incubated with 3000 or 6000 μM NOBA at 37° C. The virus was then pelleted and washed with TNE buffer to remove weakly bound zinc. The quantity of zinc in the resulting viral pellets was determined as described in Bess et. al., J. Virol. 66:840-847 (1992).

[6] = system: human peripheral blood neutrophil leukocytes; experiment: Superoxide generation by human neutrophils
[7] = system: 855-2 cells; experiment: MTT assay, cytocidal activity; format: cell-based, human; conditions: 10 μM, 100,000 cells/ml
Method: MTT (3-[4,5-[…]]-2,5-diphenyltetrazolium bromide) at 1 mg/ml was then added for 16 hours. The absorbance of the pelleted cell was then measured at 550 nm after adding DMSO to solubilze the cells.

[8] = biological target: Zn(HIV1-F1)-oligonucleotide complex (Human immunodeficiency virus type 1 lw12.3 isolate, UniProt Q70622); experiment: NMR studies of Zn(HIV1-F1) nucleic acid binding; format: biochemical, HIV-1; conditions: two equivalents of NOBA (FIG. 11)
Description: The downfield regions of the spectra show the signals of the aromatic and ribose H1' protons, and the upfield region contain signals of the methyl group protons. Dramatic spectral changes occur upon addition of oligonucleotide to Zn(HIV1-F1), including large upfield shifts of the Phe 2 and Ile 10 side chain=n signals and a downfield shifting and broadening of the guanosine-H8 proton signal (second from the top).
The reaction mechanism, schematically illustrated in FIG. 12, is consistent with the result of NMR analysis in FIGS. 10 and 11. The reaction mechanism proposed in FIG. 12 is a useful model but is not intended to limit the scope of the claimed invention.

[9] = system: normal cells (neutrophil leukocytes and bone marrow or peripheral blood stem cells); experiment: Functions/viability of normal cells in absence or presence of compounds
Method: as §2

[10] = system: cells / HIV; experiment: Anti-tumor / anti-HIV (biological) action, general statement
[11] = PHA-PBL viability (MTT dye reduction); format: cell-based; conditions: human, read-out: concentration tolerated by human lymphocytes without major changes in cell metabolism
Method: PHA-PBL (10^6 /ml) were treated with increasing doses of NOBA for 24 hours in the presence of MTT substrate and the relative absorbance at 550 nm reflects the metabolic activity of the cells. The level of product formation in the absence of NOBA was considered to be 100% and all experimental values were normalized to that control value.
as §1

[12] = system: H9 cells; experiment: [3H]thymidine uptake, H9 cells; format: cell-based, human; conditions: 10% FCS

With `NC(=O)c1cccc(N=O)c1` [NOBA, 3-nitrosobenzamide] the “activity against tumor cells, in words” value [1] was “highly effective (against tumor cells)”, the log reduction at 100 µM ([2]; Human immunodeficiency virus 1, 0.5 h, 100 μM, 30 min, 22° C., 9 days, read-out: decrease of infectious virus available to cause 50% infected cultures) was 4 and the “relative depression of HIV-1 propagation, in words” value ([2]; NOBA vs NOBP) was “greater depression of HIV-1 propagation”. For the same molecule, the “temperature of maximal inactivation of HIV-1” value ([2]; preincubation at 0°, 22° and 37° C.) was 37 °C, the “CFU stem cell toxicity, in words” value [3] was “non-toxic” and the “colony formation, HL-60, in words” value [4] was “inhibit the ability of human leukemic cells (855-2 and HL-60) to form colonies”. The “Zinc Loss” value ([5]; 3,000 μM, 2 h, 37° C.) was 52%, the “Zinc, NOBA-Treated Sample” value ([5]; 3,000 μM, 2 h, 37° C., control 0.21) was 0.11 µg/mL and the “Zinc Loss” value ([5]; 6,000 μM, 4 h, 37° C.) was 83%. The “Zinc, NOBA-Treated Sample” value ([5]; 6,000 μM, 4 h, 37° C., control 0.24) was 0.04 µg/mL, the “losses of the viral zinc” value ([5]; 3000 or 6000 μM, 37° C.) was 50-83% and the “infectivity of HIV-1 virions, in words” value ([5]; concentrated suspensions (60×)) was “complete loss of infectivity”. For the same molecule, the “loss of viral proteins in the pellet, in words” value ([5]; p24 and gp120 competition RIA, SDS-PAGE) was “No significant loss of viral proteins”, the “superoxide generation by human neutrophils (mean + S.D., n = 11)” value ([6]; 10 μM, 10^5 PMN + PMA (control 55.9 ± 7.7)) was 44.4 ± 10.0 nmol O2^- /hr/10^5 cells and the “superoxide generation, in words” value ([6]; 10 μm) was “Only minor reductions in superoxide generation”. For the same molecule, the “killing of 855-2 cells (MTT), in words” value [7] was “complete killing”, the “zinc ejection and loss of nucleic acid binding, in words” value [8] was “ejection of zinc with concomitant dissociation of the zinc finger nucleic acid complex; also recorded: NOBA-induced zinc ejection leads to loss of high-affinity nucleic acid binding function” and the “effect on normal stem cell colony formation (FIG. 5), in words” value ([9]; anti-leukemic doses, soft agar, rhesus bone marrow or human peripheral blood stem cells) was “minimal effect on normal cells”. The “effect on viability of normal cells, in words” value ([9]; tumor cell inhibitory concentrations) was “not to affect adversely the viability of normal cells”, the “anti-tumor and anti-HIV activity, in words” value [10] was “highly active as anti-tumor and anti-HIV molecules” and the “effectiveness after short exposure of cells” value ([10]; exposure as short as 30 minutes) was “effective even after exposure of cells for a period as short as 30 minutes”. For the same molecule, the MNTC at 24 h [11] was ≥ 50 µM, the “inhibition of thymidine uptake, H9” value ([12]; 250 μM) was “almost complete inhibition” and the inhibition at 10 µM ([12]; Homo sapiens, H9, 10 μM) was ~75%. The inhibition at 100 µM ([12]; Homo sapiens, H9, 100 μM) was ~85%.
